Patent publication US12568972B2, “Pyridazinol compounds and derivatives, preparation methods, herbicidal compositions and applications thereof” (Qingdao Kingagroot Chemical Compound Co., Ltd., priority 2018, dated 2026)

Key:
Assay in all cases: Post-emergence test, weed control effect
Assay type in all cases: in vivo
Settings in all cases: after 3 weeks
[1] = system: Amaranthus retroflexus
Text: (§1) The activity level standard of harmful plant destruction (i.e. growth inhibition rate) is as follows: • Level 10: completely dead; • Level 9: above 90% growth inhibition rate; • Level 8: above 80% growth inhibition rate; • Level 7: above 70% growth inhibition rate; • Level 6: above 60% growth inhibition rate; • Level 5: above 50% growth inhibition rate; • Level 4: above 40% growth inhibition rate; • Level 3: above 30% growth inhibition rate; • Level 2: above 20% growth inhibition rate; • Level 1: below 20% growth inhibition rate; • Level 0: no effect.
(§2) The above described growth inhibition rates are fresh weight inhibition rates.
(§3) Experiment of post-emergence test: monocotyledonous and dicotyledonous weed seeds as well as main crop seeds (i.e., wheat, corn, rice, soybean, cotton, oilseed rape, millet and sorghum) were put into a plastic pot loaded with soil, then covered with 0.5-2 cm of soil, and the seeds were allowed to grow in good greenhouse environment. The test plants were treated at 2-3 leaf stage 2-3 weeks after sowing. The test compounds of the invention were dissolved in acetone respectively, then added with Tween-80 and diluted by a certain amount of water to give solutions with certain concentrations, and added with 80% vegetable oil methyl ester synergist at 1500 g/ha. The solution was sprayed to the plants with a sprayer. The plants were cultured for 3 weeks in the greenhouse.

[2] = system: Rorippa indica
Text: as §1, §2, §3

[3] = system: Veronica polita
Text: as §1, §2, §3

[4] = system: Chenopodiaceae
Text: as §1, §2, §3

Cc1cc(F)ccc1-c1nnc(C(F)(F)F)cc1O [Compound 58]
10: weed control effect (activity level), Amaranthus retroflexus ([1]; dose 1000 g/ha) | weed control effect (activity level), Rorippa indica ([2]; dose 1000 g/ha) | weed control effect (activity level), Veronica polita ([3]; dose 1000 g/ha) | weed control effect (activity level), Chenopodiaceae ([4]; dose 1000 g/ha)

CCSc1ncccc1C(=O)Oc1cc(C(F)(F)F)nnc1-c1ccc(F)c(F)c1 [Compound 1-113]
10: weed control effect, Amaranthus retroflexus (activity level) ([1]; Dose 3000 g/ha) | weed control effect, Rorippa indica (activity level) ([2]; Dose 3000 g/ha) | weed control effect, Veronica polita (activity level) ([3]; Dose 3000 g/ha) | weed control effect, Chenopodiaceae (activity level) ([4]; Dose 3000 g/ha)

CC(C)n1nc(F)cc1-c1nnc(C(F)(F)F)cc1O [Compound 830]
10: weed control effect (activity level), Amaranthus retroflexus ([1]; Dose 3000 g/ha) | weed control effect (activity level), Rorippa indica ([2]; Dose 3000 g/ha) | weed control effect (activity level), Veronica polita ([3]; Dose 3000 g/ha) | weed control effect (activity level), Chenopodiaceae ([4]; Dose 3000 g/ha)

CS(=O)(=O)c1ccc(-c2nnc(C(F)(F)F)cc2O)cc1 [Compound 114]
10: weed control effect (activity level), Amaranthus retroflexus ([1]; dose 1000 g/ha) | weed control effect (activity level), Rorippa indica ([2]; dose 1000 g/ha) | weed control effect (activity level), Veronica polita ([3]; dose 1000 g/ha) | weed control effect (activity level), Chenopodiaceae ([4]; dose 1000 g/ha)

Oc1cc(C(F)(F)F)nnc1-c1ccc(F)cc1Cl [Compound 44]
10: weed control effect (activity level), Amaranthus retroflexus ([1]; dose 1000 g/ha) | weed control effect (activity level), Rorippa indica ([2]; dose 1000 g/ha) | weed control effect (activity level), Veronica polita ([3]; dose 1000 g/ha) | weed control effect (activity level), Chenopodiaceae ([4]; dose 1000 g/ha)

CCCCCCCOC(=O)Oc1cc(C(F)(F)F)nnc1-c1ccc(Cl)c(Cl)c1Cl [Compound 1-38]
10: weed control effect, Amaranthus retroflexus (activity level) ([1]; Dose 3000 g/ha) | weed control effect, Rorippa indica (activity level) ([2]; Dose 3000 g/ha) | weed control effect, Veronica polita (activity level) ([3]; Dose 3000 g/ha) | weed control effect, Chenopodiaceae (activity level) ([4]; Dose 3000 g/ha)

CCCCCCCCSC(=O)Oc1cc(C(F)(F)F)nnc1-c1ccc(F)cc1 [Compound 1-54]
10: weed control effect, Amaranthus retroflexus (activity level) ([1]; Dose 3000 g/ha) | weed control effect, Rorippa indica (activity level) ([2]; Dose 3000 g/ha) | weed control effect, Veronica polita (activity level) ([3]; Dose 3000 g/ha) | weed control effect, Chenopodiaceae (activity level) ([4]; Dose 3000 g/ha)

N#Cc1ccc(-c2nnc(C(F)(F)F)cc2O)cn1 [Compound 212]
10: weed control effect (activity level), Amaranthus retroflexus ([1]; dose 2000 g/ha) | weed control effect (activity level), Rorippa indica ([2]; dose 2000 g/ha) | weed control effect (activity level), Veronica polita ([3]; dose 2000 g/ha) | weed control effect (activity level), Chenopodiaceae ([4]; dose 2000 g/ha)

CC(C)COC(=O)Oc1cc(C(F)(F)F)nnc1-c1cccc(C(F)(F)F)c1 [Compound 1-30]
10: weed control effect, Amaranthus retroflexus (activity level) ([1]; Dose 3000 g/ha) | weed control effect, Rorippa indica (activity level) ([2]; Dose 3000 g/ha) | weed control effect, Veronica polita (activity level) ([3]; Dose 3000 g/ha) | weed control effect, Chenopodiaceae (activity level) ([4]; Dose 3000 g/ha)

COc1cc(-c2nnc(C(F)(F)F)cc2O)n(C)n1 [Compound 782]
10: weed control effect (activity level), Amaranthus retroflexus ([1]; Dose 3000 g/ha) | weed control effect (activity level), Rorippa indica ([2]; Dose 3000 g/ha) | weed control effect (activity level), Veronica polita ([3]; Dose 3000 g/ha) | weed control effect (activity level), Chenopodiaceae ([4]; Dose 3000 g/ha)

O=S(=O)(Oc1cc(C(F)(F)F)nnc1-c1ccc(C(F)(F)F)cc1)c1cccc2ccccc12 [Compound 1-144]
10: weed control effect, Amaranthus retroflexus (activity level) ([1]; Dose 3000 g/ha) | weed control effect, Rorippa indica (activity level) ([2]; Dose 3000 g/ha) | weed control effect, Veronica polita (activity level) ([3]; Dose 3000 g/ha) | weed control effect, Chenopodiaceae (activity level) ([4]; Dose 3000 g/ha)

CN(C)c1cnn(C)c1-c1nnc(C(F)(F)F)cc1O [Compound 816]
10: weed control effect (activity level), Amaranthus retroflexus ([1]; Dose 3000 g/ha) | weed control effect (activity level), Rorippa indica ([2]; Dose 3000 g/ha) | weed control effect (activity level), Veronica polita ([3]; Dose 3000 g/ha) | weed control effect (activity level), Chenopodiaceae ([4]; Dose 3000 g/ha)

Oc1cc(C(F)(F)F)nnc1-c1cccc(Br)c1 [Compound 31]
10: weed control effect (activity level), Amaranthus retroflexus ([1]; dose 1000 g/ha) | weed control effect (activity level), Rorippa indica ([2]; dose 1000 g/ha) | weed control effect (activity level), Veronica polita ([3]; dose 1000 g/ha) | weed control effect (activity level), Chenopodiaceae ([4]; dose 1000 g/ha)

Oc1cc(C(F)(F)F)nnc1-c1cc2ccccc2cn1 [Compound 743]
10: weed control effect (activity level), Amaranthus retroflexus ([1]; Dose 3000 g/ha) | weed control effect (activity level), Rorippa indica ([2]; Dose 3000 g/ha) | weed control effect (activity level), Veronica polita ([3]; Dose 3000 g/ha) | weed control effect (activity level), Chenopodiaceae ([4]; Dose 3000 g/ha)

COC(=O)/C=C/c1nnc(C(F)(F)F)cc1O [Compound 1522]
10: weed control effect (activity level), Amaranthus retroflexus ([1]; Dose 3000 g/ha) | weed control effect (activity level), Chenopodiaceae ([4]; Dose 3000 g/ha)
